# Reference: patent US20250206732A1, “COMPOUNDS AND METHODS FOR THE TARGETED DEGRADATION OF KRAS” (Arvinas Operations, Inc., priority 2022, published 2025)
# Target: T1, AsPC-1 HiBiT-KRASG12D (Homo sapiens, UniProt P01116, G12D)
# T1 construct: insert the HiBiT tag onto the N-terminus of one or more of the endogenous KRAS alleles; endogenous in cells; host or cells: AsPC-1 (ATCC CRL-1682), CRISPR-Cas9 knock-in clone, one tagged allele
# Experiment: HiBiT degradation assay (G12D), AsPC-1 HiBiT-KRASG12D cells
# Format: cell-based
# Settings: 24 hours treatment; for Dmax: ASPC1, AsPC-1 HiBiT-KRASG12D cells, maximum degradation observed; for DC50: AsPC-1 HiBiT-KRASG12D cells, HiBiT luminescence
# Procedure, shortened: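 HiBiT-KRAS abundance was read as Nano-Glo HiBiT lytic luminescence (45 min, room temperature) after a PBS wash. Before that, a 4 h alamar blue fluorescence read, normalized to DMSO, monitored viability. Treatment lasted 24 hours at 37 °C, in triplicate, using AsPC-1 cells with endogenous N-terminally HiBiT-tagged KRAS G12D.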
# T1 sequence (P01116 1-188 isoform P01116-2 G12D): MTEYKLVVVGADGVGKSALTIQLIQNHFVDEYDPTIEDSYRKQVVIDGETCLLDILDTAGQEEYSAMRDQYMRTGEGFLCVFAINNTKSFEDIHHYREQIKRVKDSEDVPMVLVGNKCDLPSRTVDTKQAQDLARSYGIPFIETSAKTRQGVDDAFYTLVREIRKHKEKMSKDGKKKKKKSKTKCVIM
SMILES,Dmax [%],DC50 [nM]
"CCc1cccc2cc(O)cc(-c3ncc4c(N5CC6CCC(C5)N6)nc(OC[C@]56CCCN5[C@H](COC(=O)N5C[C@H](C)N(c7cc([C@@H](C(=O)N8C[C@H](O)C[C@H]8C(=O)N[C@@H](C)c8ccc(-c9scnc9C)cc8)C(C)C)on7)C[C@H]5C)CC6)nc4c3F)c12 [Compound 302, [(3S,8R)-8-[[4-(3,8-diazabicyclo[3.2.1]octan-3-yl)-7-(8-ethyl-3-hydroxy-1-naphthyl)-8-fluoro-pyrido[4,3-d]pyrimidin-2-yl]oxymethyl]-1,2,3,5,6,7-hexahydropyrrolizin-3-yl]methyl (2R,5S)-4-[5-[(1S)-1-[(2S,4R)-4-hydroxy-2-[[(1S)-1-[4-(4-methylthiazol-5-yl)phenyl]ethyl]carbamoyl]pyrrolidine-1-carbonyl]-2-methyl-propyl]isoxazol-3-yl]-2,5-dimethyl-piperazine-1-carboxylate]",20 to 60,1000 to 3000
C#Cc1c(F)ccc2cc(O)cc(-c3ncc4c(N5CC6CCC(C5)N6)nc(OC[C@]56CCCN5[C@H](COC(=O)N5CC(Oc7cc([C@@H](C(=O)N8C[C@H](O)C[C@H]8C(=O)N[C@@H](C)c8ccc(-c9scnc9C)cc8)C(C)C)on7)C5)CC6)nc4c3F)c12 [Compound 303],60 to 80,< 600
CCc1cccc2cncc(-c3ncc4c(N5CC6CCC(C5)N6)nc(OCCN5CCC(COc6cc([C@H](C(=O)N7C[C@H](O)C[C@H]7C(=O)N[C@@H](C)c7ccc(-c8scnc8C)cc7)C(C)C)on6)CC5)nc4c3F)c12 [Compound 304],–,> 3000
CCc1cccc2cc(O)cc(-c3ncc4c(N5CCCCCC5)nc(OC[C@]56CCCN5[C@H](COC(=O)N5CC(Oc7cc([C@@H](C(=O)N8C[C@H](O)C[C@H]8C(=O)N[C@@H](C)c8ccc(-c9scnc9C)cc8)C(C)C)on7)C5)CC6)nc4c3F)c12 [Compound 305],20 to 60,600 to 1000
Cc1ncsc1-c1ccc([C@H](C)NC(=O)[C@@H]2C[C@@H](O)CN2C(=O)[C@@H](c2cc(OC3CN(C(=O)OC[C@@H]4CC[C@@]5(COc6nc(N7CC8CCC(C7)N8)c7cnc(-c8cc(O)cc(Cl)c8C8CC8)c(F)c7n6)CCCN45)C3)no2)C(C)C)cc1 [Compound 306],80 to 100,< 600
"CCc1cccc2cccc(-c3ncc4c(N5CC6CCC(C5)N6)nc(OC[C@]56CCCN5[C@H](COc5cc([C@H](C(=O)N7C[C@H](O)C[C@H]7C(=O)N[C@@H](C)c7ccc(-c8scnc8C)cc7)C(C)C)on5)CC6)nc4c3F)c12 [Compound 309, (2S,4R)-1-[(2R)-2-[3-[[(3S,8R)-8-[[4-(3,8-diazabicyclo[3.2.1]octan-3-yl)-7-(8-ethyl-1-naphthyl)-8-fluoro-pyrido[4,3-d]pyrimidin-2-yl]oxymethyl]-1,2,3,5,6,7-hexahydropyrrolizin-3-yl]methoxy]isoxazol-5-yl]-3-methyl-butanoyl]-4-hydroxy-N-[(1S)-1-[4-(4-methylthiazol-5-yl)phenyl]ethyl]pyrrolidine-2-carboxamide]",< 20,< 600
"CCc1cccc2cccc(-c3ncc4c(N5CC6CCC(C5)N6)nc(OC[C@]56CCCN5[C@H](COc5cc([C@@H](C(=O)N7C[C@H](O)C[C@H]7C(=O)N[C@@H](C)c7ccc(-c8scnc8C)cc7)C(C)C)on5)CC6)nc4c3F)c12 [Compound 310, (2S,4R)-1-[(2S)-2-[3-[[(3S,8R)-8-[[4-(3,8-diazabicyclo[3.2.1]octan-3-yl)-7-(8-ethyl-1-naphthyl)-8-fluoro-pyrido[4,3-d]pyrimidin-2-yl]oxymethyl]-1,2,3,5,6,7-hexahydropyrrolizin-3-yl]methoxy]isoxazol-5-yl]-3-methyl-butanoyl]-4-hydroxy-N-[(1S)-1-[4-(4-methylthiazol-5-yl)phenyl]ethyl]pyrrolidine-2-carboxamide]",80 to 100,< 600
